Key:
[1] = system: human CD34+ cells; experiment: Expansion of human CD34+ cells (EC50, CD34+CD45RA- cell count); format: cell-based; details: concentration that results in a 50% increase in CD34+CD45RA- cell count compared to vehicle cultures (DMSO); for EC50: Homo sapiens, read-out: Biological data (EC50)*
[2] = system: human CD34+ CB cells; format: cell-based; details: for gene transfer efficiency to human CD34+ CB cells and CD34+ subsets, variants of Cmpd1: prestimulated 16 hours and transduced 6 hours in presence of compound, FACS after 3 additional days (FIGS. 16A, 16B)
Procedure: The cells were then exposed for 6 hours to a GFP lentiviral vector (10^6 iu/mL) in the same medium. […] At the end of the culture media, cells were harvested, stained for CD34 and analysed by flow cytometry.
The vector constructs were sequence-verified. […] Virus-containing supernatants were concentrated by ultracentrifugation to achieve titers of 0.5×10^9 to 5×10^9 infectious units/ml. Viral titers were determined by transducing HeLa cells with three dilutions of the lentiviral vector.
Umbilical cord blood (CB) and mobilized peripheral blood (mPB) cells were collected with consent according to procedures approved by the Research Ethics Board of the University of British Columbia. CD34^+ enriched adult bone marrow cells were purchased from […] Technologies. CD34^+ CB and mPB cells were enriched to >90% purity using first RosetteSep™ CD34 preenrichment cocktail ([…] Technologies) followed by positive selection using magnetic beads (EasySep kit, […] Technologies). In some cases additional enrichment was done by sorting CD34^+ cells using an Influx II sorter (BD Bioscience). […] All flow cytometric analysis was performed using a LSRII Fortessa® (BD Biosciences).

[3] = system: macaque umbilical cord blood CD34+ cells; details: after transplantation of co-cultured macaque cord blood CD34+ cells

SMILES	EC50 [1] [µM]	gene transfer efficiency to human CD34+ CB cells and CD34+ subsets, variants of Cmpd1 [2]	Biological data (EC50)* [1]	proportion of primate CD45+ cells in the blood of transplanted mice [3]	enhancement of lentiviral-mediated gene transfer (in words) ([2]; SR1 0.75 μM, assessed 3 days post-infection on CD34+ cells from cord blood)
COC(=O)c1ccc2c(c1)[nH]c1nc(Cc3ccccc3)nc(N(C)CCCN3CCCCC3)c12 [Cmpd 3]	< 0.1	increase gene transfer efficiency			
COC(=O)c1ccc2c(c1)[nH]c1nc(Cc3cccc(F)c3)nc(NCCCN3CCCCC3)c12 [Cmpd 4]	< 0.1	increase gene transfer efficiency			
CN(CCCNC(=O)CNC(=O)CNC(=O)CN)CCCNc1nc(Cc2ccccc2)nc2[nH]c3cc(-c4nnn(C)n4)ccc3c12 [Cmpd 5, 2-amino-N-(2-((2-((3-((3-((2-benzyl-7-(2-methyl-2H-tetrazol-5-yl)-9H-pyrimido[4,5-b]indol-4-yl)amino)propyl)(methyl)amino)propyl)amino)-2-oxoethyl)amino)-2-oxoethyl)acetamide]	0.25 to 0.5	increase gene transfer efficiency			
COC(=O)c1ccc2c(c1)[nH]c1nc(Cc3ccccc3)nc(SCCCN3CCCCC3)c12 [Cmpd 6, methyl 2-benzyl-4-((3-(piperidin-1-yl)propyl)thio)-9H-pyrimido[4,5-b]indole-7-carboxylate]	0.25 to 0.5	increase gene transfer efficiency			
CCCOC(=O)c1ccc2c(c1)[nH]c1ncnc(NCCCN3CCCCC3)c12 [Cmpd 7, propyl 4-((3-(piperidin-1-yl)propyl)amino)-9H-pyrimido[4,5-b]indole-7-carboxylate]	> 1	not observed			
COC(=O)c1ccc2c(c1)[nH]c1nc(-c3ccccc3)nc(NCCCN3CCCCC3)c12 [Cmpd 8, methyl 2-phenyl-4-((3-(piperidin-1-yl)propyl)amino)-9H-pyrimido[4,5-b]indole-7-carboxylate 2,2,2-trifluoroacetate]		not observed	inactive		
COC(=O)c1ccc2c(c1)[nH]c1cc(Cc3ccsc3)nc(N[C@H]3CC[C@H](N)CC3)c12 [Cmpd 88]	0.1 to 0.25				
COC(=O)c1ccc2c(c1)[nH]c1cc(Cc3ccsc3)nc(NCCN(C)CCN)c12 [Cmpd 89]	0.25 to 0.5				
CC(C)n1cnc2c(NCCc3ccc(O)cc3)nc(-c3csc4ccccc34)nc21 [SR1, StemRegenin 1, reference compound]				not obtained	not observed

Reference: patent US10273503B2, “Compounds and methods for enhancing viral gene transfer to human hematopoietic cells” (UNIVERSTÉ DE MONTRÉAL, priority 2015, dated 2019)
